Assay results from the NIST ThermoML archive (doi:10.1016/j.jct.2016.08.022).

Conditions: for molar entropy: 101.33 kPa, Small (less than 1 g) adiabatic calorimetry

CCC(=O)O[C@]1(C(=O)COC(C)=O)CC[C@H]2[C@@H]3C[C@H](C)C4=CC(=O)C=C[C@]4(C)[C@H]3[C@@H](O)C[C@@]21C [Methylprednisolone aceponate]
Conditions	molar entropy [J/K/mol]
5 K, Crystal 2	0.628
10 K, Crystal 2	4.44
15 K, Crystal 2	10.8
20 K, Crystal 2	18.5
25 K, Crystal 2	27.49
30 K, Crystal 2	37.43
40 K, Crystal 2	58.9
50 K, Crystal 2	81.57
60 K, Crystal 2	105
70 K, Crystal 2	128.9
80 K, Crystal 2	152.9
90 K, Crystal 2	177.1
100 K, Crystal 2	201.3
110 K, Crystal 2	225.4
120 K, Crystal 2	249.3
130 K, Crystal 2	273.2
140 K, Crystal 1	296.3
150 K, Crystal 1	318.6
160 K, Crystal 1	340.7
170 K, Crystal 1	362.5
180 K, Crystal 1	384.1
190 K, Crystal 1	405.4
200 K, Crystal 1	426.6
210 K, Crystal 1	447.6
220 K, Crystal 1	468.5
230 K, Crystal 1	489.3
240 K, Crystal 1	509.9
250 K, Crystal 1	530.5
260 K, Crystal 1	551
270 K, Crystal 1	571.5
280 K, Crystal 1	591.8
290 K, Crystal 1	612.1
298.15 K, Crystal 1	628.6
300 K, Crystal 1	632.4
310 K, Crystal 1	652.6
320 K, Crystal 1	672.9
330 K, Crystal 1	693.1
340 K, Crystal 1	713.4
346 K, Crystal 1	725.6

Conditions	Triple point temperature [K]
Crystal 2, Adiabatic calorimetry	131
